This note sets out measurements from ChEMBL document CHEMBL1123991 (J Med Chem, 1988).

For one assay, the target named is D(2) dopamine receptor (Rattus norvegicus, UniProt P61169). Kind of assay: Inhibition of 0.1 nM of [125I]- (S)-N-(1-Ethyl-pyrrolidin-2-ylmethyl)-5-iodo-2-methoxy-benzamide binding in striatal homogenates of rat brain. Format: tissue-based.
Assay [1] concerns Rattus norvegicus. Kind of assay: Regional uptake of [125I]- (S)-N-(1-Ethyl-pyrrolidin-2-ylmethyl)-5-iodo-2-methoxy-benzamide in rat cerebellum 60 min after intravenous administration. It counts as functional, organism-based.
In assay [2] the test system is Rattus norvegicus. Kind of assay: Regional uptake of [125I]- (S)-N-(1-Ethyl-pyrrolidin-2-ylmethyl)-5-iodo-2-methoxy-benzamide in rat frontal cortex 60 min after intravenous administration. Format: functional, organism-based.
Assay [3] relates to Rattus norvegicus. Kind of assay: Regional uptake of [125I]- (S)-N-(1-Ethyl-pyrrolidin-2-ylmethyl)-5-iodo-2-methoxy-benzamide in rat striatum 60 min after intravenous administration. Format: functional, organism-based.
Assay [4] can be described thus: Ratio of uptake of [125I]- (S)-N-(1-Ethyl-pyrrolidin-2-ylmethyl)-5-iodo-2-methoxy-benzamide in striatum:cerebellum; 7.2:1. It counts as functional.
Assay [5] can be described thus: Ratio of uptake of [125I]- (S)-N-(1-Ethyl-pyrrolidin-2-ylmethyl)-5-iodo-2-methoxy-benzamide in striatum:frontal cortex; 4.7:1. Format: functional.
Assay [6] in a line: Ratio of uptake of [125I]- (S)-N-(1-Ethyl-pyrrolidin-2-ylmethyl)-5-iodo-2-methoxy-benzamide in striatum:striatum; 1.0:1. Format: functional.

By IC50 is commonly meant the concentration that gives 50% inhibition. Lower therefore signals higher potency.

D(2) dopamine receptor, sequence (P61169 whole entry): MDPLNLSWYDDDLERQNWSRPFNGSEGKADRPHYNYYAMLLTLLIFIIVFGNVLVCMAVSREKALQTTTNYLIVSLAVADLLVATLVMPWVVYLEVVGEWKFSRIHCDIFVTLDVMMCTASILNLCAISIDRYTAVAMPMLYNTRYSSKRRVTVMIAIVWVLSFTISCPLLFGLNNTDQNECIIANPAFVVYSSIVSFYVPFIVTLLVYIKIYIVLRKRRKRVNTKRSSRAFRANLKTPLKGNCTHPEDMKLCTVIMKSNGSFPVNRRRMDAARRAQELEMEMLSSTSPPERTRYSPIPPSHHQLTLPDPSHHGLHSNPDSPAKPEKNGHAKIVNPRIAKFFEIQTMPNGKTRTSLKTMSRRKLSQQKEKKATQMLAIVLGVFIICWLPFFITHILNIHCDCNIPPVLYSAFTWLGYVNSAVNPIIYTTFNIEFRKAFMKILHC

At D(2) dopamine receptor, `CCN1CCC[C@@H]1CNC(=O)c1cc(I)ccc1OC` displayed an IC50 of 113 nM. The Radioactivity in the assay on Rattus norvegicus [1] was 7.8 nCi g-1; in the assay on Rattus norvegicus [2], 11.9 nCi g-1; in the assay on Rattus norvegicus [3], 56.2 nCi g-1. Further, the values for the Ratio in assay [4], in assay [5] and in assay [6] were 7.2, 4.7 and 1, respectively.
With `CCN1CCC[C@H]1CNC(=O)c1cc(I)ccc1OC` [IODOPRIDE], the IC50 on D(2) dopamine receptor worked out at 1.5 nM.
